Test results reported in patent US8952024B2, “Herbicidal pyrimidone derivatives” (E I du Pont de Nemours and Company, priority 2009, dated 2015).

Experiments:
Type in all cases: in vivo
[1] = tested on: barnyardgrass (Echinochloa crus-galli); experiment: Test A pre-/postemergence plant response
Excerpt: (§1) Seeds of barnyardgrass (Echinochloa crus-galli), large crabgrass (Digitaria sanguinalis), giant foxtail (Setaria faberii), morningglory (Ipomoea spp.), pigweed (Amaranthus retroflexus), velvetleaf (Abutilon theophrasti), wheat (Triticum aestivum) and corn (Zea mays) were planted into a blend of loam soil and sand and treated preemergence with a directed soil spray using test chemicals formulated in a non-phytotoxic solvent mixture which included a surfactant. At the same time these species were also treated with postemergence applications of test compounds formulated in the same manner.
(§2) Plants ranged in height from two to ten cm and were in the one- to two-leaf stage for the postemergence treatment. Treated plants and untreated controls were maintained in a greenhouse for approximately ten days, after which time all treated plants were compared to untreated controls and visually evaluated for injury. Plant response ratings, summarized in Table A, are based on a 0 to 100 scale where 0 is no effect and 100 is complete control. A dash (-) response means no test result.

[2] = tested on: corn (Zea mays); experiment: Test A pre-/postemergence plant response
Excerpt: as §1, §2

[3] = tested on: giant foxtail (Setaria faberii); experiment: Test A pre-/postemergence plant response
Excerpt: as §1, §2

[4] = tested on: large crabgrass (Digitaria sanguinalis); experiment: Test A pre-/postemergence plant response
Excerpt: as §1, §2

[5] = tested on: morningglory (Ipomoea spp.); experiment: Test A pre-/postemergence plant response
Excerpt: as §1, §2

[6] = tested on: pigweed (Amaranthus retroflexus); experiment: Test A pre-/postemergence plant response
Excerpt: as §1, §2

[7] = tested on: velvetleaf (Abutilon theophrasti); experiment: Test A pre-/postemergence plant response
Excerpt: as §1, §2

[8] = tested on: wheat (Triticum aestivum); experiment: Test A pre-/postemergence plant response
Excerpt: as §1, §2

[9] = tested on: barnyardgrass (Echinochloa crus-galli); experiment: Test B flooded paddy test; details: for Plant response rating, Flood, Barnyardgrass: 250 g ai/ha, flooded paddy test, visual rating on 0 to 100 scale (0 no effect, 100 complete control) after 13 to 15 days; for Plant response rating, Barnyardgrass: Flood (flooded paddy test), 13 to 15 days; for Barnyardgrass plant response rating: Flood, 31 g ai/ha, scale 0 to 100 (0 no effect, 100 complete control)
Summary of the method: (§3)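 Each compound is added to standing floodwater (3 cm above soil, maintained) in pots of 2-leaf-stage plants; greenhouse exposure lasts 13–15 d before visual comparison with controls on a 0–100 control scale.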

[10] = tested on: ducksalad (Heteranthera limosa); experiment: Test B flooded paddy test; details: for Plant response rating, Flood, Ducksalad: 250 g ai/ha, flooded paddy test, visual rating on 0 to 100 scale (0 no effect, 100 complete control) after 13 to 15 days; for Plant response rating, Ducksalad: Flood (flooded paddy test), 13 to 15 days; for Ducksalad plant response rating: Flood, 31 g ai/ha, scale 0 to 100 (0 no effect, 100 complete control)
Summary of the method: as §3

[11] = tested on: rice (Oryza sativa); experiment: Test B flooded paddy test; details: for Plant response rating, Flood, Rice: 250 g ai/ha, flooded paddy test, visual rating on 0 to 100 scale (0 no effect, 100 complete control) after 13 to 15 days; for Plant response rating, Rice: Flood (flooded paddy test), 13 to 15 days; for Rice plant response rating: Flood, 31 g ai/ha, scale 0 to 100 (0 no effect, 100 complete control)
Summary of the method: as §3

[12] = tested on: umbrella sedge (Cyperus difformis); experiment: Test B flooded paddy test; details: for Plant response rating, Flood, Sedge, Umbrella: 250 g ai/ha, flooded paddy test, visual rating on 0 to 100 scale (0 no effect, 100 complete control) after 13 to 15 days; for Plant response rating, Sedge, Umbrella: Flood (flooded paddy test), 13 to 15 days; for Sedge, Umbrella plant response rating: Flood, 31 g ai/ha, scale 0 to 100 (0 no effect, 100 complete control)
Summary of the method: as §3

[13] = Postemergence, 125 g ai/ha, 0 to 100 scale where 0 is no effect and 100 is complete control
[14] = Postemergence, 500 g ai/ha, 0 to 100 scale, 0 = no effect, 100 = complete control, approx. ten days
[15] = Preemergence, 125 g ai/ha, 0 to 100 scale, 0 = no effect, 100 = complete control
[16] = Preemergence, 500 g ai/ha, visual injury, 0 to 100 scale (0 no effect, 100 complete control), approx. ten days
[17] = 62 g ai/ha, scale of 0 to 100 where 0 is no effect and 100 is complete control
[18] = 125 g ai/ha, scale 0 to 100, 0 is no effect, 100 is complete control

SMILES: CCCCn1c(-c2cccc(F)c2)ncc(C(=O)C2=C(O)CCCC2=O)c1=O [Compound 125]
- Plant response rating, Barnyardgrass [1, 13]: 70
- Plant response rating, Barnyardgrass [1, 14]: 90
- Plant response rating, Barnyardgrass [1, 15]: 10
- Plant response rating, Barnyardgrass [1, 16]: 90
- Plant response rating, Corn [2, 13]: 0
- Plant response rating, Corn [2, 14]: 20
- Plant response rating, Corn [2, 15]: 0
- Plant response rating, Corn [2, 16]: 0
- Plant response rating, Foxtail, Giant [3, 13]: 70
- Plant response rating, Foxtail, Giant [3, 14]: 90
- Plant response rating, Foxtail, Giant [3, 15]: 40
- Plant response rating, Foxtail, Giant [3, 16]: 80
- Plant response rating, Crabgrass, Large [4, 13]: 70
- Plant response rating, Crabgrass, Large [4, 14]: 90
- Plant response rating, Crabgrass, Large [4, 15]: 80
- Plant response rating, Crabgrass, Large [4, 16]: 100
- Plant response rating, Morningglory [5, 13]: 80
- Plant response rating, Morningglory [5, 14]: 80
- Plant response rating, Morningglory [5, 15]: 0
- Plant response rating, Morningglory [5, 16]: 0
- Plant response rating, Pigweed [6, 13]: 90
- Plant response rating, Pigweed [6, 14]: 100
- Plant response rating, Pigweed [6, 15]: 90
- Plant response rating, Pigweed [6, 16]: 90
- Plant response rating, Velvetleaf [7, 13]: 100
- Plant response rating, Velvetleaf [7, 14]: 100
- Plant response rating, Velvetleaf [7, 15]: 60
- Plant response rating, Velvetleaf [7, 16]: 100
- Plant response rating, Wheat [8, 13]: 0
- Plant response rating, Wheat [8, 14]: 10
- Plant response rating, Wheat [8, 15]: 0
- Plant response rating, Wheat [8, 16]: 0
- Plant response rating, Flood, Barnyardgrass [9]: 60
- Plant response rating, Barnyardgrass [9, 17]: 25
- Plant response rating, Barnyardgrass [9, 18]: 40
- Barnyardgrass plant response rating [9]: 0
- Plant response rating, Flood, Ducksalad [10]: 70
- Plant response rating, Ducksalad [10, 17]: 40
- Plant response rating, Ducksalad [10, 18]: 60
- Ducksalad plant response rating [10]: 20
- Plant response rating, Flood, Rice [11]: 0
- Plant response rating, Rice [11, 17]: 0
- Plant response rating, Rice [11, 18]: 0
- Rice plant response rating [11]: 0
- Plant response rating, Flood, Sedge, Umbrella [12]: 90
- Plant response rating, Sedge, Umbrella [12, 17]: 35
- Plant response rating, Sedge, Umbrella [12, 18]: 90
- Sedge, Umbrella plant response rating [12]: 25

SMILES: Cc1cc(-n2c(-c3cccc(Cl)c3)ncc(C(=O)C3=C(O)CCCC3=O)c2=O)ccc1F [Compound 133]
- Plant response rating, Barnyardgrass [1, 13]: 20
- Plant response rating, Barnyardgrass [1, 14]: 90
- Plant response rating, Barnyardgrass [1, 15]: 10
- Plant response rating, Barnyardgrass [1, 16]: 100
- Plant response rating, Corn [2, 13]: 10
- Plant response rating, Corn [2, 14]: 40
- Plant response rating, Corn [2, 15]: 0
- Plant response rating, Corn [2, 16]: 20
- Plant response rating, Foxtail, Giant [3, 13]: 20
- Plant response rating, Foxtail, Giant [3, 14]: 90
- Plant response rating, Foxtail, Giant [3, 15]: 40
- Plant response rating, Foxtail, Giant [3, 16]: 80
- Plant response rating, Crabgrass, Large [4, 13]: 40
- Plant response rating, Crabgrass, Large [4, 14]: 100
- Plant response rating, Crabgrass, Large [4, 15]: 50
- Plant response rating, Crabgrass, Large [4, 16]: 100
- Plant response rating, Morningglory [5, 13]: 40
- Plant response rating, Morningglory [5, 14]: 70
- Plant response rating, Morningglory [5, 15]: 0
- Plant response rating, Morningglory [5, 16]: 0
- Plant response rating, Pigweed [6, 13]: 80
- Plant response rating, Pigweed [6, 14]: 100
- Plant response rating, Pigweed [6, 15]: 40
- Plant response rating, Pigweed [6, 16]: 100
- Plant response rating, Velvetleaf [7, 13]: 100
- Plant response rating, Velvetleaf [7, 14]: 100
- Plant response rating, Velvetleaf [7, 15]: 50
- Plant response rating, Velvetleaf [7, 16]: 100
- Plant response rating, Wheat [8, 13]: 20
- Plant response rating, Wheat [8, 14]: 40
- Plant response rating, Wheat [8, 15]: 0
- Plant response rating, Wheat [8, 16]: 20
- Plant response rating, Flood, Barnyardgrass [9]: 0
- Plant response rating, Barnyardgrass [9, 17]: 0
- Plant response rating, Barnyardgrass [9, 18]: 0
- Barnyardgrass plant response rating [9]: 0
- Plant response rating, Flood, Ducksalad [10]: 100
- Plant response rating, Ducksalad [10, 17]: 60
- Plant response rating, Ducksalad [10, 18]: 100
- Ducksalad plant response rating [10]: 60
- Plant response rating, Flood, Rice [11]: 0
- Plant response rating, Rice [11, 17]: 0
- Plant response rating, Rice [11, 18]: 0
- Rice plant response rating [11]: 0
- Plant response rating, Flood, Sedge, Umbrella [12]: 100
- Plant response rating, Sedge, Umbrella [12, 17]: 60
- Plant response rating, Sedge, Umbrella [12, 18]: 95
- Sedge, Umbrella plant response rating [12]: 0

SMILES: CCCCn1c(-c2cccc(Br)c2)ncc(C(=O)C2=C(O)CCCC2=O)c1=O [Compound 138]
- Plant response rating, Barnyardgrass [1, 13]: 90
- Plant response rating, Barnyardgrass [1, 14]: 90
- Plant response rating, Barnyardgrass [1, 15]: 20
- Plant response rating, Barnyardgrass [1, 16]: 90
- Plant response rating, Corn [2, 13]: 20
- Plant response rating, Corn [2, 14]: 20
- Plant response rating, Corn [2, 15]: 0
- Plant response rating, Corn [2, 16]: 20
- Plant response rating, Foxtail, Giant [3, 13]: 60
- Plant response rating, Foxtail, Giant [3, 14]: 90
- Plant response rating, Foxtail, Giant [3, 15]: 30
- Plant response rating, Foxtail, Giant [3, 16]: 70
- Plant response rating, Crabgrass, Large [4, 13]: 70
- Plant response rating, Crabgrass, Large [4, 14]: 90
- Plant response rating, Crabgrass, Large [4, 15]: 40
- Plant response rating, Crabgrass, Large [4, 16]: 70
- Plant response rating, Morningglory [5, 13]: 50
- Plant response rating, Morningglory [5, 14]: 100
- Plant response rating, Morningglory [5, 15]: 0
- Plant response rating, Morningglory [5, 16]: 0
- Plant response rating, Pigweed [6, 13]: 100
- Plant response rating, Pigweed [6, 14]: 100
- Plant response rating, Pigweed [6, 15]: 50
- Plant response rating, Pigweed [6, 16]: 90
- Plant response rating, Velvetleaf [7, 13]: 100
- Plant response rating, Velvetleaf [7, 14]: 100
- Plant response rating, Velvetleaf [7, 15]: 20
- Plant response rating, Velvetleaf [7, 16]: 80
- Plant response rating, Wheat [8, 13]: 0
- Plant response rating, Wheat [8, 14]: 20
- Plant response rating, Wheat [8, 15]: 0
- Plant response rating, Wheat [8, 16]: 20
- Plant response rating, Flood, Barnyardgrass [9]: 25
- Plant response rating, Barnyardgrass [9, 17]: 0
- Plant response rating, Flood, Ducksalad [10]: 80
- Plant response rating, Ducksalad [10, 17]: 70
- Plant response rating, Flood, Rice [11]: 15
- Plant response rating, Rice [11, 17]: 0
- Plant response rating, Flood, Sedge, Umbrella [12]: 80
- Plant response rating, Sedge, Umbrella [12, 17]: 70

SMILES: O=C1CCCC(O)=C1C(=O)c1cnc(-c2cccc(Cl)c2)n(CC2CCCO2)c1=O (stereo not shown) [Compound 142]
- Plant response rating, Barnyardgrass [1, 13]: 70
- Plant response rating, Barnyardgrass [1, 14]: 90
- Plant response rating, Barnyardgrass [1, 15]: 10
- Plant response rating, Barnyardgrass [1, 16]: 80
- Plant response rating, Corn [2, 13]: 0
- Plant response rating, Corn [2, 14]: 20
- Plant response rating, Corn [2, 15]: 0
- Plant response rating, Corn [2, 16]: 0
- Plant response rating, Foxtail, Giant [3, 13]: 30
- Plant response rating, Foxtail, Giant [3, 14]: 80
- Plant response rating, Foxtail, Giant [3, 15]: 0
- Plant response rating, Foxtail, Giant [3, 16]: 20
- Plant response rating, Crabgrass, Large [4, 13]: 70
- Plant response rating, Crabgrass, Large [4, 14]: 90
- Plant response rating, Crabgrass, Large [4, 15]: 30
- Plant response rating, Crabgrass, Large [4, 16]: 80
- Plant response rating, Morningglory [5, 13]: 100
- Plant response rating, Morningglory [5, 14]: 100
- Plant response rating, Morningglory [5, 15]: 0
- Plant response rating, Morningglory [5, 16]: 50
- Plant response rating, Pigweed [6, 13]: 90
- Plant response rating, Pigweed [6, 14]: 100
- Plant response rating, Pigweed [6, 15]: 90
- Plant response rating, Pigweed [6, 16]: 100
- Plant response rating, Velvetleaf [7, 13]: 100
- Plant response rating, Velvetleaf [7, 14]: 100
- Plant response rating, Velvetleaf [7, 15]: 20
- Plant response rating, Velvetleaf [7, 16]: 60
- Plant response rating, Wheat [8, 13]: 0
- Plant response rating, Wheat [8, 14]: 20
- Plant response rating, Wheat [8, 15]: 0
- Plant response rating, Wheat [8, 16]: 0
- Plant response rating, Flood, Barnyardgrass [9]: 10
- Plant response rating, Barnyardgrass [9, 17]: 0
- Plant response rating, Barnyardgrass [9, 18]: 0
- Barnyardgrass plant response rating [9]: 0
- Plant response rating, Flood, Ducksalad [10]: 80
- Plant response rating, Ducksalad [10, 17]: 0
- Plant response rating, Ducksalad [10, 18]: 80
- Ducksalad plant response rating [10]: 0
- Plant response rating, Flood, Rice [11]: 0
- Plant response rating, Rice [11, 17]: 0
- Plant response rating, Rice [11, 18]: 0
- Rice plant response rating [11]: 0
- Plant response rating, Flood, Sedge, Umbrella [12]: 80
- Plant response rating, Sedge, Umbrella [12, 17]: 0
- Plant response rating, Sedge, Umbrella [12, 18]: 65
- Sedge, Umbrella plant response rating [12]: 0
